Source: patent publication US4444691A, “11-Cyano-prostaglandins of the F-series” (American Cyanamid Company, priority 1982, dated 1984)
Like-named read-outs stand apart in the source and are kept apart here.

Experiments:
[1] = tested on: bronchospasms elicited by acetylcholine; test: Bronchodilator activity (Konzett assay), acetylcholine bronchospasm; type: in vivo, guinea pigs; details: Cavia porcellus; spasmogenic agent acetylcholine; three logarithmic cumulative intravenous doses
Procedure: (§1) Bronchodilator activity was determined in guinea pigs against bronchospasms elicited by intravenous injections of 5-hydroxytryptamine, histamine or acetylchlorine by the Konzett procedure. (See J. Lulling, P. Licvens, F. El Sayed and J. Prignot, Arzneinittel-Forschung, 18, 995 (1968).]
(§2) In the Table which follows bronchodilator activity for representative compounds of this invention against one or more of the three spasmogenic agents is expressed as an ED50 determined from the results obtained with three logarithmic cumulative intravenous doses.

[2] = tested on: bronchospasms elicited by histamine; test: Bronchodilator activity (Konzett assay), histamine bronchospasm; type: in vivo, guinea pigs; details: spasmogenic agent histamine, three logarithmic cumulative intravenous doses; for ED50: Cavia porcellus, iv
Procedure: as §1, §2

[3] = tested on: bronchospasms elicited by 5-hydroxytryptamine; test: Bronchodilator activity (Konzett assay), 5-hydroxytryptamine bronchospasm; type: in vivo, guinea pigs; details: spasmogenic agent 5-hydroxytryptamine, three logarithmic cumulative intravenous doses; for ED50: Cavia porcellus
Procedure: as §1, §2

gastric acid secretion = test: Gastric acid secretion inhibition, modified Shay rat procedure; type: in vivo, rats (male, CFE strain)
Excerpt: The novel compounds of the present invention are effective inhibitors of gastric acid secretion and of ulcer development in experimental animals, and thus are potentially valuable as agents for the control of gastric secretion and of gastric erosion and as anti-ulcer agents. Gastric acid secretion inhibitory action is usually measured by the "Shay rat" procedure ^(1,2) with some modifications as follows.
(1) Shay et al., Gastroenterology, 5, 43 (1945).
The rats (male, CFE strain) were starved for 48 hours (water was given ad libitum) to permit evacuation of stomach contents. On the morning of the experiment, under ether anesthesia, the abdominal region was shaved and a midline incision (1-11/2" ) was made with a scapel. With the help of a closed curved hemostat the duodenum was picked up. Upon getting the duodenum into view, fingers were used to pull the stomach through the opening, the stomach was then gently manipulated with fingers to rid stomach of air and residual matter which were pushed through the pylorus. Two-5 inch sutures were drawn under the pyloric-duodenal puncture. A ligature at the juncture, was formed with one of the threads. The second ligature was also formed but not tightened.
The test compound or the vehicle, usually 1 ml./100 g. body weight, were injected into the duodenum as close as possible to the first ligature. After injection the second ligature was tightened below the injection site to minimize leakage. The stomach was placed back through the opening into the abdominal cavity, the area of incision was washed with saline and the incision was closed with autoclips. (Occasionally, instead of an intraduodenal injection, animals were dosed by the oral or subcutaneous route. In the latter case, dosing was done thirty to sixty minutes before the operation.)
The abdominal cavity was exposed by cutting with scissors and the esophagus close to the stomach was clamped off with a hemostat, the stomach was removed by cutting above the hemostat (the esophagus was cut) and between the two sutures. Extraneous tissue was removed, the stomach washed with saline and blotted on gauze. A slit was carefully made in the stomach which was held over a funnel and the contents were collected in a centrifuge tube. The stomach was further cut along the outside edge and turned inside out. Two ml. H2 O were used to wash the stomach contents into the respective centrifuge tube. The combined stomach contents and wash were then centrifuged out for 10 minutes in the International Size 2 Centrifuge (setting at 30). The supernatant was collected, volume measured and recorded, 2 drops of a phenylphthalein indicator (1% in 95% ethanol) were added and the solution was titrated with 0.02 N NaOH (or with 0.04 N NaOH when large volumes of stomach contents were encountered) to pH 8.4 (because of usual coloring of the stomach contents, phenolphthalein was only used to permit visual indication that the end point was near) and the amount of acid present was calculated.
Compounds inducing inhibition of gastric acid secretion of 20% or more were considered active. In a representative operation, and merely by way of illustration, the results obtained with this assay with typical compounds of the present invention are given in Table II below.

[4] = tested on: ulcerogenic effects induced by indomethacin (stomach ulcers); type: in vivo, rat; details: indomethacin 20 mg/kg s.c., score 0-4
Procedure: It is further to be noted that although prostaglandins in general are not effective when administered by oral route, the compounds of this invention are effective orally. The assay to determine the protective effect of these compounds is carried out in the following manner.
Rats were starved for 48 hours (water was given ad libitum). Indomethacin (20 mg./kg. of body weight) was administered by the subcutaneous route and one-half the dose of the test compound was administered by gavage at the same time. After three hours, the second half of the test compound was administered, also by gavage. Five hours after the administration of indomethacin the animals were decapitated and the stomachs removed. The stomachs were washed with distilled water, blotted on gauze, cut along the larger curvature, and the contents rinsed with distilled water. The stomachs were spread out, pinned on a cork and visualized under magnifying glass for ulcers. The criteria for scoring of ulcers was as previously reported. [Abdel-Galil et al. Brit. J. Pharmac. Chemotherapy 33:1-14 (1968)]. […]
1 Petechial hemorrhage of pin point ulcers
3 Many ulcers, a few large
4 Many ulcers, mainly large
Control animals treated with indomethacin but not test compound consistently give scores of about 2.5-3.5. Control animals treated with neither indomethacin not test compound give scores of about 0.5-0.8. Compounds diminishing the control ulcer score by 0.5 unit or more are considered to be active.

[5] = tested on: basal gastric acid secretion; test: Inhibition of total acid output (basal gastric acid secretion) in the acute gastric fistula rat; type: in vivo, female Sprague-Dawley rats; details: intraduodenal, 10 mg/kg; for inhibition in vivo at 10 mg/kg: Rattus norvegicus
Procedure: Inhibition of basal gastric acid secretion can be determined by the following procedure.
Female Sprague-Dawley rats weighing 140-160 grams are fasted in individual cages for 18-24 hours. The rats are then lightly anesthetized with ether and their front teeth extracted to avoid destruction of the plastic cannula. A midline incision is then made and the stomach and duodenum exposed. A flanged polyvinyl tube is inserted into the fundic portion of the stomach and secured with a purse string suture line using 4-O Mersilene. The rat is then dosed by injection of the compound into the duodenum (1.0 ml. per 100 gram body weight). After dosing, the abdominal wall and skin are closed using metal wound clips. The rat is replaced in a cage containing a longitudinal slit to allow the polyvinyl tube to hang freely. An 8 ml. plastic collecting tube is attached to the flanged cannula and hangs freely below the cage. The first 30 minute sample is discarded designating this time as zero. The collecting tube is attached again and samples removed at the end of 60 and 120 minutes. These samples are referred to as "A" and "B" in the table. The hourly samples are then transferred to a 15 ml. centrifuge and centrifuged for 5-10 minutes. Total and sediment volume are then recorded with the supernatent volume being used as volume of secretion. A 1 ml. or less aliquot is then removed and placed in a 50 ml. beaker containing 10 ml. of distilled water. This sample is then titrated using 0.01 N NaPH to pH 7.0 using a Beckman zeromatic pH meter. Volume, titratable acidity (mew/L) and total acid output (ueq/hour) are recorded. Percent inhibition is determined by comparison with the appropriate control. Groups of three rats were used for preliminary testing, and groups of six rats were used for dose-response evaluations. All compounds are administered in a vehicle consisting of 0.5% methocel, 0.4% tween 80, and saline at a constant volume of 1 ml./100 gram rat. Samples are dispersed by sonification. Percent inhibition is calculated on basis of concurrent vehicle control.
In Table III which follows is given the effect on total acid output after 60 minutes and 120 minutes of intraduodenal dose, of representative compounds of this invention.

[6] = Rattus norvegicus, intraduodenal, 50 mg/kg, read-out: Percent inhibition of gastric acid secretion
[7] = total oral dose 12.5 mg/kg, controls 2.5-3.0
[8] = 1 h, 60 min, read-out: % Inhibition of total acid output, after 60 minutes (A)
[9] = 2 h, 120 min, read-out: % Inhibition of total acid output, after 120 minutes (B)
[10] = total oral dose 25 mg/kg, controls 2.7-3.9

`CCCCC[C@H](O)/C=C/[C@H]1[C@H](CC(=O)O)CC(=O)[C@@H]1C/C=C\CCCC(=O)O` [11-deoxy-11α-carboxymethylprostaglandin E2] showed an ED50 [1] of 4.6 mg/kg, an ED50 [2] of 3.4 mg/kg and an ED50 [3] of 5.5 mg/kg.

`CCCCC[C@H](O)CC[C@H]1[C@H](C)CC(=O)[C@@H]1CCCCCCC(=O)O` [11-deoxy-11α-methyl-13,14-dihydroprostaglandin E1] was tested, and the ED50 [1] was 0.773 mg/kg, the inhibition in vivo at 50 mg/kg (gastric acid secretion; [6]) was 45% and the “Ulcer score, treated animals” value [4, 7] was 2.3. The “Ulcer score, treated animals” value ([4]; total oral dose 50 mg/kg, controls 2.5-3.2) was 1.7.

Work on `CCCCC[C@H](O)/C=C/[C@H]1[C@H](C[N+](=O)[O-])CC(=O)[C@@H]1C/C=C\CCCC(=O)O` [11-deoxy-11α-nitromethyl prostaglandin E2] yielded an ED50 [1] of 1.7 mg/kg, an ED50 [2] of 1.4 mg/kg and an inhibition in vivo at 100 mg/kg (gastric acid secretion; Rattus norvegicus, intraduodenal, 100 mg/kg, read-out: Percent inhibition of gastric acid secretion) of 74%. For the same compound, the “Ulcer score, treated animals” value ([4]; total oral dose 100 mg/kg, controls 3.2) was 1.0.

In the case of `CCCCC[C@H](O)/C=C/[C@H]1[C@@H](CO)CC(=O)[C@@H]1C/C=C\CCCC(=O)O` [11-deoxy-11β-hydroxymethyl-prostaglandin E2], the ED50 [1] is reported as 0.25 mg/kg, the ED50 [2] is reported as 0.065 mg/kg and the ED50 [3] is reported as 0.3 mg/kg. For the same compound, the inhibition in vivo at 8 mg/kg (gastric acid secretion; Rattus norvegicus, sc, subcutaneous, 8 mg/kg, read-out: Percent inhibition of gastric acid secretion) was 44%.

With `CCCCC[C@H](O)/C=C/[C@H]1[C@H](C(N)=O)CC(=O)[C@@H]1C/C=C\CCCC(=O)O` [11α-carboxamido-11-deoxyprostaglandin E2] the “ED50, bronchodilator activity” value [2] was 0.53 mg/kg, the “% Inhibition of total acid output, after 60 minutes (A)” value ([5]; 60 min) was 27% and the “% Inhibition of total acid output, after 120 minutes (B)” value ([5]; 120 min) was 35%. The “ED50, bronchodilator activity” value [3] was 1.7 mg/kg and the “Percent inhibition of gastric acid secretion” value (gastric acid secretion; intraduodenal, 50 mg/kg) was 27%.

`CCCCC[C@H](O)/C=C/[C@@H]1[C@@H](C/C=C\CCCC(=O)O)[C@@H](O)C[C@H]1SC` [11α-methylthio-11-deoxyprostaglandin F2α] showed an ED50 [2] of 1.6 mg/kg, an ED50 [3] of 2.63 mg/kg and an inhibition in vivo at 50 mg/kg (gastric acid secretion; [6]) of 61%. The “Ulcer score, treated animals” value [4, 7] was 1.2.

`CCCCCC(C)/C=C/[C@H]1[C@H](C)CC(=O)[C@@H]1C/C=C\CCCC(=O)O` (stereo partly drawn) [l-11α,15-dimethyl-11,15-bisdeoxyprostaglandin-E2] showed an ED50 [3] of 18.1 mg/kg and an inhibition in vivo at 50 mg/kg (gastric acid secretion; [6]) of 60%.

Compound `CCCCC[C@H](O)/C=C/[C@H]1[C@H](C#N)CC(=O)[C@@H]1C/C=C\CCCC(=O)O` [l-11α-cyano-11-deoxyprostaglandin-E2, l-11-deoxy-11α-cyanoprostaglandin-E2] has an ED50 [1] of 0.0053 mg/kg, an ED50 [2] of 0.0014 mg/kg and an inhibition in vivo at 10 mg/kg [5, 8] of 49%. The inhibition in vivo at 10 mg/kg [5, 9] was 18% and the ED50 [3] was 0.0003 mg/kg.

Work on `CCCCC[C@H](O)/C=C/[C@@H]1[C@@H](C/C=C\CCCC(=O)O)[C@@H](O)C[C@H]1C#N` [l-11α-cyano-11-deoxyprostaglandin-F2 α, 11α-cyano-11-deoxyprostaglandin F2 α] yielded an ED50 [1] of 0.051 mg/kg, an ED50 [3] of 0.03 mg/kg and an inhibition in vivo at 50 mg/kg (gastric acid secretion; [6]) of 43%. For the same compound, the “Ulcer score, treated animals” value [4, 10] was 1.3.

`CC/C=C\CC(O)/C=C/C1C(C/C=C\CCCC(=O)O)C(=O)CC1C(C(=O)O)C(=O)O` (stereo not drawn) [l-11α-dicarboxymethyl-11-deoxyprostaglandin-E3] was tested, and the “ED50, bronchodilator activity” value [3] was 3.3 mg/kg.

`CCCCC[C@H](O)/C=C/[C@H]1[C@H](CC)CC(=O)[C@@H]1C/C=C\CCCC(=O)O` [l-11α-ethyl-11-deoxyprostaglandin-E2, 11-deoxy-11α-ethyl-prostaglandin E2] was tested, and the ED50 [1] was 3.9 mg/kg, the ED50 [2] was 1.24 mg/kg and the inhibition in vivo at 10 mg/kg [5, 8] was 57%. The inhibition in vivo at 10 mg/kg [5, 9] was 66% and the “Ulcer score, treated animals” value [4, 10] was 2.2.

`CCCCC[C@H](O)/C=C/[C@@H]1[C@@H](C/C=C\CCCC(=O)O)C(=O)C[C@H]1C(C)C` [l-11α-isopropyl-11-deoxyprostaglandin-E2, 11-deoxy-11α-isopropyl-prostaglandin E2] was tested, and the ED50 [3] was 8.95 mg/kg and the inhibition in vivo at 50 mg/kg (gastric acid secretion; [6]) was 42%.

In the case of `CCCCC[C@H](O)/C=C/[C@@H]1[C@@H](C/C=C\CCCC(=O)O)[C@@H](O)C[C@H]1C` [l-11α-methyl-11-deoxyprostaglandin-F2 α, 11-deoxy-11α-methyl-prostaglandin F2α], the ED50 [2] is reported as 0.013 mg/kg, the ED50 [3] is reported as 0.038 mg/kg and the inhibition in vivo at 50 mg/kg (gastric acid secretion; [6]) is reported as 70%. The “Ulcer score, treated animals” value [4, 10] was 1.8.

`CCCCC[C@H](O)/C=C/[C@@H]1[C@@H](C/C=C\CCCC(=O)O)C(=O)C[C@H]1c1ccccc1` [l-11α-phenyl-11-deoxyprostaglandin-E2, l-11-deoxy-11α-phenylprostaglandin-E2] gave an ED50 [3] of 0.46 mg/kg and an inhibition in vivo at 50 mg/kg (gastric acid secretion; [6]) of 58%.

With `C=C[C@@H]1CC(=O)[C@H](C/C=C\CCCC(=O)O)[C@H]1/C=C/[C@@H](O)CCCCC` [l-11α-vinyl-11-deoxyprostaglandin-E2, 11-deoxy-11α-vinyl-prostaglandin E2] the ED50 [2] was 1.3 mg/kg, the ED50 [3] was 1.2 mg/kg and the inhibition in vivo at 50 mg/kg (gastric acid secretion; [6]) was 59%.

Compound `CCCCC[C@H](O)/C=C/[C@H]1[C@@H](C#N)CC(=O)[C@@H]1C/C=C\CCCC(=O)O` [l-11β-cyano-11-deoxyprostaglandin-E2, l-11-deoxy-11β-cyanoprostaglandin-E2] has an ED50 [2] of 54.9 mg/kg, an inhibition in vivo at 10 mg/kg [5, 8] of 26% and an inhibition in vivo at 10 mg/kg [5, 9] of 43%. The ED50 [3] was 3.1 mg/kg.
